These results are taken from US20250042880A1 (UNIVERSITY OF KENTUCKY RESEARCH FOUNDATION, priority 2021, published 2025).

Data set [1] deals with HCT116 cells. As to the kind of experiment: Cell proliferation inhibition assay, HCT116. The conditions noted are these: for inhibition at 3 µM / inhibition at 10 µM / inhibition at 1 µM: Homo sapiens; for inhibition at 3 µM: HCT-116, 3 μM; for inhibition at 10 µM: HCT-116, 10 μM; for inhibition at 1 µM: HCT-116, 1 μM. It is filed as cell-based. The method, then: (§1) Cell proliferation inhibition assay-Cell proliferation inhibition assay was performed as previously reported (48). All compounds to be tested were dissolved at 10 mM in DMSO. The cells were seeded into 12-well plates at a density of 40,000 cells per well in 1 mL of culture medium and were cultured overnight at 37° C. Either 1 μL of the compounds or the vehicle control (DMSO) was added to the cells. After 5 days, the medium was removed, and 200 μL of 0.25% trypsin was added. The cells were resuspended in 800 μL phosphate-buffered saline (PBS) and counted with Vi-CELL XR 2.03 (Beckman Coulter, Inc. USA). The ratio R of the number of viable cells in the compound-treated group to the number of viable cells in the DMSO-treated group was called relative growth rate, and the growth inhibition was calculated as (1−R)*100.
(§2) Cell proliferation inhibition assay was conducted according to a previous report (48). The cells were split into 12-well plates at a density of 40,000 cells per well in 1 mL of culture medium and were cultured overnight at 37° C. Either 1 μL of the compounds dissolved at 10 mmol/L in DMSO or the vehicle control (DMSO) was added to the cells. After 5 days, removed the medium, and 200 μL of 0.25% trypsin was added. The cells were resuspended in phosphate-buffered saline (PBS) and counted with Vi-CELL XR 2.03 (Beckman Coulter, Inc. USA). The ratio R of the number of viable cells in the compound treatment group to the number of viable cells in the DMSO treatment group was defined as the relative growth rate, and the growth inhibition rate was calculated as (1−R)*100.

Data set [2] has as its system OCV-8 Cell. In words: OCV-8 cell inhibition. The data set is classed as cell-based. As to conditions: read-out: OCV-8 Cell Inhibiton; for inhibition at 0.3 µM: 300 nM.
In data set [3] the test system is LS174T xenografts. In words: LS174T xenografts in SCID mice. The data set is classed as in vivo, mouse. The conditions noted are these: BAY-876 3 mg/kg/day, DBI-1 40 mg/kg/day. The protocol:
In vivo evaluation of anti-cancer activity in LS174T xenografts—The mouse studies were conducted with the approval of the University of Kentucky Institutional Animal Care and Use Committee (2020-3531). All methods were carried out in compliance with the relevant guidelines and regulations according to protocols. The LS174T cells in exponential growth phase were trypsinized and resuspended in 50% Matrigel (Corning, Glendale, Arizona). Cells (1.2×10^6) were subcutaneously injected on the lower flanks of severe combined immunodeficient mice. The tumor volumes were calculated based on the formula Length×width^2/2. When tumors reached an average volume of 100 mm^3, the mice were divided into control and treatment groups (3 male and 3 female mice/group, two tumors on each mouse). After tumors were established, BAY-876 was given to the mice by gavage feeding to the BAY-876 group at the dose of 3 mg/kg/day. DBI-1 was daily intraperitoneally (i.p.) administered to the DBI-1 group at dose of 40 mg/kg mouse body weight. Mice in the combination treatment group were administered both oral BAY-876 at the dose of 3 mg/kg/day and i.p. DBI-1 at dose of 40 mg/kg mouse body weight. Tumors and mouse weights were measured every three days and the experiment was stopped at day 12. Tumors were isolated and fixed in 10% neutral buffered formalin. Tumor sections were analyzed with H&E and Ki-67 staining at Markey Cancer Center's Biospecimen Procurement and Translational Pathology Shared Resource Facility (BPTP SRF).

For data set [4], the system named is LS174T cells. In words: Cell proliferation inhibition assay, LS174T. It is filed as cell-based. As to conditions: for combinational effect with BAY-876 on proliferation of LS174T cells: in combination with BAY-876. The protocol:
as §1, §2

In data set [5] the test system is Pt2377 cells. In words: Cell proliferation inhibition assay, Pt2377. The data set is classed as cell-based. The conditions noted are these: 120 h; 5 days, viable cells counted. The method, then: as §1
The conditions of data set [6]: cited from earlier work.

As for `O=c1c(-c2ccc(Br)cc2)coc2cc(OCCCCN3CCOCC3)ccc12` [WZY-1-155], the “HCT116 Cells Proliferation Inhibition %” value in data set [1] (3 μM) is 65.3%.
Consider `O=c1c(-c2ccc(Br)cc2)coc2cc(OCCCCCCCCN3CCOCC3)ccc12` [WZY-1-101], for which the inhibition at 3 µM in data set [1] amounted to 50.6%.
On to `O=c1c(-c2ccc(Br)cc2)coc2cc(OCCCCn3ccnc3)ccc12` [WZY-1-139], for which the inhibition at 3 µM in data set [1] worked out at 58.7%.
Still for that read-out and setting: then `O=c1c(-c2ccc(Br)cc2)coc2cc(OCCCCn3cccn3)ccc12` [WZY-1-141], with 63.9%; and `O=c1c(-c2ccccc2Cl)coc2cc(OCCN3CCN(CCO)CC3)ccc12` [WZY-1-129], with 13%.
Consider `O=c1c(-c2ccc(Cl)c(Cl)c2)coc2cc(OCCN3CCNCC3)ccc12` [XDQ-1-25], for which, in data set [1], the inhibition at 3 µM amounted to 93% and the inhibition at 10 µM stood at 92.5%. In data set [2], the inhibition at 0.3 µM came out at 72% and the inhibition at 1 µM was found to be 99%.
As to `CN(C)CCN(C)CCOc1ccc2c(=O)c(-c3ccc(Br)cc3)coc2c1` [WZY-1-193], the inhibition at 1 µM in data set [1] is 26%. Also, in data set [2], the inhibition at 0.3 µM came out at 57% and the inhibition at 1 µM was determined as 87%.
With `O=c1c(-c2ccc(Br)cc2)coc2cc(OCCCCCCCCn3ccnc3)ccc12` [WZY-1-143], the inhibition at 3 µM in data set [1] was determined as 61.2%.
Regarding `O=c1c(-c2ccc(Cl)cc2)coc2cc(OCCN3CCOCC3)ccc12` [WZY-1-149], in data set [1], the inhibition at 3 µM was determined as 51.4%.
In the case of `O=c1c(-c2ccc(Cl)cc2Cl)coc2cc(OCCN3CCN(CCO)CC3)ccc12` [WZY-1-125], the inhibition at 3 µM in data set [1] turned out to be 43.1%.
In data set [1], `O=c1c(-c2ccc(F)c(F)c2)coc2cc(OCCN3CCN(CCO)CC3)ccc12` [XDQ-1-13] gave an inhibition at 3 µM of 10% and an inhibition at 10 µM of 61%.
Usually IC50 stands for the concentration at which inhibition is half-maximal. A lower IC50 goes with higher potency. For `CN(C)CCN(C)CCCCOc1ccc2c(=O)c(-c3ccc(Br)cc3)coc2c1` [DBI-1, 3-(4-Bromophenyl)-7-(4-((2-(dimethylamino)ethyl)(methyl)amino)butoxy)-4H-chromen-4-one], the figures for the inhibition at 1 µM in data set [1] and in data set [2] were 45% and 96%, respectively. Further, in data set [3], the “toxicity based on mice body weight growth rate” value is on record as “No significant toxicity”. Besides, the IC50 stood at 1200 nM in data set [4] (Homo sapiens, LS174T, 120 h, 5 days, viable cells counted) and 1400 nM in data set [5]. In addition, in data set [2], the inhibition at 0.3 µM was 57%.
`O=c1c(-c2ccc(Br)cc2)coc2cc(OCCCCCCCCN3CCSCC3)ccc12` [WZY-1-103] registered an inhibition at 3 µM in data set [1] of 42.6%.
`O=c1c(-c2ccccc2F)coc2cc(OCCN3CCN(CCO)CC3)ccc12` [WZY-1-67]: in data set [1], the inhibition at 3 µM was determined as 0% and the inhibition at 10 µM turned out to be 0%.
Take `COc1ccc(-c2coc3cc(OCCN4CCNCC4)ccc3c2=O)cc1` [WZY-1-59]: in data set [1], the inhibition at 3 µM came out at 0% and the inhibition at 10 µM turned out to be 92%.
`O=c1c(-c2ccc(Br)cc2)coc2cc(OCCCCN3CCNCC3)ccc12` [WZY-1-91] displayed an inhibition at 3 µM in data set [1] of 99.9%. For the same molecule, in data set [2], the inhibition at 0.3 µM amounted to 34% and the inhibition at 1 µM stood at 94%.
With `O=c1c(-c2ccc(Br)cc2)coc2cc(OCCCCN3CCN(CCO)CC3)ccc12` [WZY-1-95], in data set [1], the inhibition at 3 µM came out at 99%. Besides, in data set [2], the inhibition at 0.3 µM worked out at 30% and the inhibition at 1 µM was 93%.
As for `O=c1c(-c2ccc(Cl)cc2Cl)coc2cc(OCCN3CCNCC3)ccc12` [WZY-1-123], the inhibition at 3 µM in data set [1] was determined as 67.1%.
Regarding `O=c1c(-c2ccc(Cl)cc2)coc2cc(OCCN3CCN(CCO)CC3)ccc12` [WZY-1-47], in data set [1], the inhibition at 3 µM was found to be 50% and the inhibition at 10 µM worked out at 94%.
In data set [1], `COc1ccc(-c2coc3cc(OCCN4CCN(CCO)CC4)ccc3c2=O)cc1` [WZY-1-61] returned an inhibition at 3 µM of 0% and an inhibition at 10 µM of 52%.
With `O=c1c(-c2ccc(Br)cc2)coc2cc(OCCn3ccnc3)ccc12` [WZY-1-131], in data set [1], the inhibition at 3 µM came to 22%.
In data set [1], `O=c1c(-c2ccc(F)cc2)coc2cc(OCCN3CCN(CCO)CC3)ccc12` [WZY-1-33] had an inhibition at 3 µM of 0% and an inhibition at 10 µM of 35%.
As for `O=c1c(-c2ccc(F)cc2)coc2cc(OCCN3CCNCC3)ccc12` [WZY-1-31], in data set [1], the inhibition at 3 µM stood at 0% and the inhibition at 10 µM came out at 89%.
In turn, `O=c1c(-c2ccc(Br)cc2)coc2cc(OCCN3CCOCC3)ccc12` [WZY-1-77] yielded an inhibition at 3 µM in data set [1] of 61.4%.
On to `CN(C)C(=N)N=C(N)N` [Metformin], for which the “combinational effect with BAY-876 on proliferation of LS174T cells” value in data set [4] is “synergistical effects with BAY-876”.
In data set [1], `O=c1c(-c2ccc(Cl)c(Cl)c2)coc2cc(OCCN3CCN(CCO)CC3)ccc12` [XDQ-1-19] came in with an inhibition at 3 µM of 95% and an inhibition at 10 µM of 94%. Also, in data set [2], the inhibition at 0.3 µM amounted to 60% and the inhibition at 1 µM is 99%.
On to `O=c1c(-c2ccc(Cl)cc2)coc2cc(OCCN3CCNCC3)ccc12` [WZY-1-43], for which, in data set [1], the inhibition at 3 µM came out at 92% and the inhibition at 10 µM amounted to 93%. Besides, in data set [2], the inhibition at 0.3 µM worked out at 31% and the inhibition at 1 µM worked out at 97%.
Regarding `O=c1c(-c2ccc(Br)cc2)coc2cc(OCCN3CCN(CCO)CC3)ccc12` [WZY-1-49], in data set [1], the inhibition at 3 µM worked out at 80% and the inhibition at 10 µM is 94%.
Regarding `O=c1c(-c2ccc(Br)cc2)coc2cc(OCCN3CCNCC3)ccc12` [WZY-1-45], in data set [1], the inhibition at 3 µM is 94% and the inhibition at 10 µM is 93%. Also, in data set [2], the inhibition at 0.3 µM was found to be 43% and the inhibition at 1 µM is 97%.
As to `Cc1nc(-c2nc(-c3ccc(OC(F)(F)F)cc3)no2)nn1Cc1cccc(N2CCC(S(C)(=O)=O)CC2)c1` [IACS-010759], the “tolerability in preclinical models” value in data set [6] (25 mg/kg/day) is reported as “not tolerated”. In addition, the “antitumor effect in preclinical models” value in data set [6] (5-10 mg/kg/day) is given as “tumor regression”.
Turning to `O=c1c(-c2ccc(F)c(F)c2)coc2cc(OCCN3CCNCC3)ccc12` [XDQ-1-9], in data set [1], the inhibition at 3 µM was determined as 34% and the inhibition at 10 µM was determined as 94%.
For the molecule `C=C(C)[C@H]1Cc2c(ccc3c2O[C@@H]2COc4cc(OC)c(OC)cc4[C@@H]2C3=O)O1` [Rotenone], the “combinational effect with BAY-876 on proliferation of LS174T cells” value in data set [4] was “synergistical effects with BAY-876”.
As to `O=c1c(-c2ccc(Br)cc2)coc2cc(OCCCCN3CCOCC3)ccc12` [WZY-1-113], the inhibition at 3 µM in data set [1] is 62.7%.
In turn, `O=c1c(-c2ccc(Br)cc2)coc2cc(OCCCCCCCCN3CCN(CCO)CC3)ccc12` [WZY-1-97] gave an inhibition at 3 µM in data set [1] of 99.7%. Besides, in data set [2], the inhibition at 0.3 µM came to 39% and the inhibition at 1 µM was found to be 96%.
